Data: patent publication US6716829B2, “Aldosterone antagonist and cyclooxygenase-2 inhibitor combination therapy to prevent or treat inflammation-related cardiovascular disorders” (Pharmacia Corporation, priority 2000, dated 2004)
Values joined by “and” are separate entries in the source; they are usually repeats but may differ in a detail not shown here. Identical values can stand only once. “Also recorded” adds a separate entry of the source.

Experiments:
aldosterone infused rats = experiment: Assay B, aldosterone infusion model: systolic blood pressure by radio-telemetry; format: in vivo, Male Sprague Dawley rats; conditions: 1% NaCl, uni-nephrectomized rats, eplerenone 100 mpk p.o., 4 weeks
Procedure: Human cardiovascular disorders are complex conditions, often initiated by vascular hypertension or a myocardial infarction (MI). In order to determine the probable effectiveness of a therapy for cardiovascular disorders, it is important to determine the potency of components in several assays. Accordingly, in Assay “A”, the efficacy of the aldosterone antagonist epeplerenone (epoxymexrenone) was determined in a hypertensive rat model with vascular inflammation, using angiotensin II infusion. In Assay “B” a study is described evaluating the efficacy of the aldosterone antagonist epeplerenone (epoxymexrenone) in a rat model using aldosterone infusion to produce hypertension with vascular inflammation. In Assay “C” a further study is described evaluating the efficacy of the aldosterone antagonist epeplerenone (epoxymexrenone) in a rat model using aldosterone infusion to produce hypertension with vascular inflammation. Assay B: In Vivo Aldosterone Infusion Model Male Sprague Dawley rats (n=39; BW=250 g) […] Uni-nephrectomy performed during implantation of mini-pumps 2. Aldosterone ([…], sc via alzet minipump) 2. […] 1. […] SBP measured by radio-telemetry probes inserted in the abdominal aorta

[1] = tested on: angiotensin II infused rats; experiment: Assay A, angiotensin II infusion model: systolic blood pressure by tail-cuff; format: in vivo, Male Wistar rats; conditions: angiotensin II 25 ng/min sc, 1% NaCl; eplerenone 100 mpk; aldosterone in adrenalectomized rats; 4 weeks
Procedure: Human cardiovascular disorders are complex conditions, often initiated by vascular hypertension or a myocardial infarction (MI). In order to determine the probable effectiveness of a therapy for cardiovascular disorders, it is important to determine the potency of components in several assays. Accordingly, in Assay “A”, the efficacy of the aldosterone antagonist epeplerenone (epoxymexrenone) was determined in a hypertensive rat model with vascular inflammation, using angiotensin II infusion. In Assay “B” a study is described evaluating the efficacy of the aldosterone antagonist epeplerenone (epoxymexrenone) in a rat model using aldosterone infusion to produce hypertension with vascular inflammation. In Assay “C” a further study is described evaluating the efficacy of the aldosterone antagonist epeplerenone (epoxymexrenone) in a rat model using aldosterone infusion to produce hypertension with vascular inflammation.
Assay A: In Vivo Angiotensin II Infusion Model
Male Wistar rats (n=50, 10/group; BW=200 g)
SBP measured by tail-cuff every week

[2] = tested on: Intracellular adhesion molecule-1 (ICAM-1); experiment: Assay C: ICAM-1 mRNA in heart by TaqMan RT-PCR; format: in vivo, Male Sprague-Dawley rats; conditions: for ICAM mRNA (AU): relative to cyclophilin expression, mean ± SEM, eplerenone dose 100 mg/kg/day; for ICAM (AU): mRNA; for ICAM-1 mRNA expression: myocardium, aldosterone + salt, 7, 14, 30 days, eplerenone 100 mg/kg/day
Procedure: (§1) The procedure of Assay B was expanded upon in a further study. […] Myocardial tissue from animals in each treatment group was examined after 7, 14, or 30 days of treatment.
(§2) Potassium chloride supplementation was added to the saline solution in order to prevent the potential hypokalemia associated with aldosterone excess.
(§3) At the time of the surgery, an Alzet 2002 osmotic minipump (Alza Corp., Palo Alto, Calif.) containing either vehicle (9% ethanol/87% propylene glycol/4% dH2O) or 1.0 mg/mL d-aldosterone (Sigma Chemical, St. Louis, Mo.) was inserted subcutaneously at the nape of the neck. Aldosterone was administered at a dose of 0.75 µg/hour. […] Animals were sacrificed from each group (n=8-13) after 7, 14, or 30 days of treatment.
(§4) The fluorogenic 5′-nuclease assay (TaqMan PCR) using Applied Biosystems' 7700 Sequence Detection System (Applied Biosystems, Foster City, Calif.) allowed for real time detection/quantitation of a specific gene by monitoring the increase in fluorescence of a gene-specific, dye-labeled oligonucleotide probe. Probes for target and reference genes were labeled at the 5′-end with a 6-carboxyfluorescein (6FAM) reporter dye and at the 3′-end with a 6-carboxy-N,N,N′,N′-tetramethylrhodamine (TAMRA) quencher dye. When the probe was annealed to the target gene, fluorescence of 6FAM was prevented by the close proximity of TAMRA. The exonuclease activity of Taq polymerase released the dyes from the oligonucleotide probe by displacing the probe from the target sequence resulting in fluorescence excitation in direct proportion to the amount of target message present. Data analysis was performed using the Sequence Detection System software from Applied Biosystems.
(§5) All primers and probes were designed using Primer Express software supplied with the 7700 Sequence Detection System and synthesized by Applied Biosystems. Standard curves using 5-fold dilutions of total RNA (from 200 ng to 320 pg) were performed to determine the efficiency of each primer/probe set in the TaqMan reaction prior to the analysis of the experimental samples. Primer/probe sets were designed from known sequences of rat genes to be analyzed. All target gene values were normalized to a reference gene, constitutively expressed cyclophilin. Primer/probe set sequences can be found in Table 8.
(§6) RNA was extracted from frozen (−80° C.) rat heart tissue using the Totally RNA Isolation Kit (Ambion, Inc., Austin, Tex.). Tissue was crushed using a stainless steel mortar and pestle, which had been chilled to −80° C. and transferred to a dounce homogenizer (Kontes, Vineland, N.J.) containing 3-10 mL cold denaturation buffer. Tissue was homogenized and transferred to a sterile, 15 mL polypropylene centrifuge tube. An equal volume of phenol:chloroform:isoamyl alcohol (25:24:1) was added, samples were shaken vigorously for 1 min, and incubated on ice for at least 15 min. Samples were centrifuged for 30 min at 10,000g. The aqueous phase was removed, 1/10 volume of a sodium acetate solution (3.0 M NaOAc pH 4.5) was added, samples were shaken or inverted for 10 seconds, and acid-phenol (premixed with isoamyl alcohol):chloroform (5:1, Ambion, Inc.) was added at an volume equivalent to the starting sample volume. Samples were shaken vigorously for 1 min, followed by a 15-min incubation on ice, and centrifuged for 30 min at 10,000 g. The aqueous phase removed and placed in a clean polypropylene tube. An equal volume of isopropanol (Sigma, St. Louis, Mo.) was added and the samples were mixed and incubated overnight at −20° C. The samples were centrifuged for 30 min at 10,000 g, the supernatant was removed and the RNA pellet was resuspended in DNAse/RNAse-free water. Samples were frozen at −80° C. for at least 2 hours, thawed on wet ice, and diluted for quantitation.

[3] = tested on: monocyte chemoattractant protein-1 (MCP-1); experiment: Assay C: MCP-1 mRNA in heart by TaqMan RT-PCR; format: in vivo, Male Sprague-Dawley rats; conditions: for MCP-1 mRNA (AU): relative to cyclophilin expression, mean ± SEM, eplerenone dose 100 mg/kg/day; for MCP1 (AU): mRNA, individual rats, incl. rat marked * excluded from statistics; for MCP-1 mRNA expression: myocardium, aldosterone + salt, 7, 14, 30 days, eplerenone 100 mg/kg/day
Procedure: as §1, §2, §3, §4, §5, §6

osteopontin = experiment: Assay A: immunostaining of hearts with osteopontin-specific antibody; format: in vivo, Male Wistar rats; conditions: angiotensin II-infused, saline-drinking rats; eplerenone 100 mpk; aldosterone replacement in adrenalectomized rats
Text: Osteopontin (also known as early T-cell activation-1, Eta-1) is a secreted glycoprotein with pro-inflammatory characteristics that mediates chemoattraction, activation and migration of monocytes.

[4] = group mean, data used for Table 17 (7-day protocol)
[5] = group mean, data used for Table 18 (14-day protocol)
[6] = group mean, data used for Table 19 (30-day protocol)

| Compound | Systolic Blood Pressure (aldosterone infused rats) | Systolic Blood Pressure [1] | ICAM mRNA (AU) ([2]; after 7 days of treatment) | ICAM mRNA (AU) ([2]; after 14 days of treatment) | ICAM mRNA (AU) ([2]; after 30 days of treatment) | ICAM (AU) [2, 4] [AU] | ICAM (AU) [2, 5] [AU] | ICAM (AU) [2, 6] [AU] | ICAM-1 mRNA expression [2] | MCP-1 mRNA (AU) ([3]; after 7 days of treatment) | MCP-1 mRNA (AU) ([3]; after 14 days of treatment) | MCP-1 mRNA (AU) ([3]; after 30 days of treatment) | MCP-1 mRNA expression [3] | Osteopontin expression in the heart (immunostaining) (osteopontin) | also measured |
| --- | --- | --- | --- | --- | --- | --- | --- | --- | --- | --- | --- | --- | --- | --- | --- |
| C[C@]12CCC(=O)C=C1CC[C@@H]1[C@@H]2[C@@H](O)C[C@]2(C=O)[C@@H](C(=O)CO)CC[C@@H]12 [Aldosterone] | increased; also recorded: systolic blood pressure elevation | increased blood pressure | 1.22 | 1.47 | 1.81 | 1.22 | 1.47 | 1.81 | upregulated at day 14 and 30 | 2.38 | 2.76 | 4.54 | significantly increased | restored osteopontin expression | ICAM (AU) ([2]; individual rats, data used for Table 17 (7-day protocol), incl. rat marked * excluded from statistics, listed as Aldosterone + salt): 1.39 AU and 0.80 AU and 1.09 AU and 1.61 AU and 1.11 AU and 1.15 AU and 1.56 AU and 1.06 AU and 1.68 AU; ICAM (AU) ([2]; individual rats, data used for Table 18 (14-day protocol), incl. rat marked * excluded from statistics, listed as Aldosterone + salt): 1.16 AU and 1.18 AU and 1.75 AU and 1.15 AU and 1.91 AU and 1.19 AU and 1.82 AU and 1.57 AU and 1.84 AU; ICAM (AU) ([2]; individual rats, data used for Table 19 (30-day protocol), incl. rat marked * excluded from statistics, listed as Aldosterone + salt): 2.67 AU and 1.63 AU and 1.69 AU and 1.50 AU and 1.54 AU; MCP1 (AU) ([3]; data used for Table 17 (7-day protocol), listed as Aldosterone + salt): 2.05 AU and 1.78 AU and 3.06 AU and 2.36 AU and 1.95 AU and 2.33 AU and 3.14 AU and 2.40 AU and 5.17 AU; MCP1 (AU) ([3]; data used for Table 18 (14-day protocol), listed as Aldosterone + salt): 2.42 AU and 1.87 AU and 4.59 AU and 3.19 AU and 3.34 AU and 1.91 AU and 2.50 AU and 2.22 AU and 5.88 AU; MCP1 (AU) ([3]; data used for Table 19 (30-day protocol), listed as Aldosterone + salt): 3.94 AU and 7.19 AU and 1.61 AU and 9.35 AU and 2.30 AU and 2.86 AU |
| COC(=O)[C@@H]1CC2=CC(=O)CC[C@]2(C)[C@@]23O[C@@H]2C[C@@]2(C)[C@@H](CC[C@@]24CCC(=O)O4)[C@H]13 [Eplerenone] | significantly reduced, but did not normalize blood pressure | Neither eplerenone nor adrenalectomy reduced blood pressure | 0.83 | 1.19 | 1.22 | 0.83 | 1.19 | 1.22 | inhibition; also recorded: significantly reduced | 1.56 | 1.59 | 2.29 | inhibition; also recorded: significantly reduced | prevented osteopontin expression | Systolic Blood Pressure (aldosterone infused rats; listed as eplerenone): depression of this elevation; ICAM (AU) ([2]; individual rats, data used for Table 17 (7-day protocol), incl. rat marked * excluded from statistics, listed as Eplerenone + aldosterone + salt): 0.91 AU and 0.89 AU (2×) and 0.40 AU and 1.23 AU and 0.58 AU and 1.00 AU; ICAM (AU) ([2]; individual rats, data used for Table 18 (14-day protocol), incl. rat marked * excluded from statistics, listed as Eplerenone + aldosterone + salt): 1.20 AU and 1.36 AU and 0.95 AU and 1.26 AU and 1.56 AU and 0.98 AU (2×) and 1.51 AU and 0.79 AU and 1.72 AU and 0.83 AU; ICAM (AU) ([2]; individual rats, data used for Table 19 (30-day protocol), incl. rat marked * excluded from statistics, listed as Eplerenone + aldosterone + salt): 1.54 AU and 2.06 AU and 1.01 AU and 1.21 AU and 1.26 AU and 1.06 AU and 0.60 AU and 0.99 AU and 2.92 AU; MCP1 (AU) ([3]; data used for Table 17 (7-day protocol), listed as Eplerenone + aldosterone + salt): 2.35 AU and 1.60 AU and 0.85 AU and 0.83 AU and 1.74 AU and 2.38 AU and 0.67 AU and 2.03 AU; MCP1 (AU) ([3]; data used for Table 18 (14-day protocol), listed as Eplerenone + aldosterone + salt): 1.78 AU and 1.37 AU and 1.27 AU and 1.75 AU and 1.60 AU and 1.24 AU (2×) and 1.92 AU and 1.89 AU and 2.21 AU and 1.20 AU; MCP1 (AU) ([3]; data used for Table 19 (30-day protocol), listed as Eplerenone + aldosterone + salt): 2.11 AU (2×) and 1.70 AU and 2.21 AU and 1.38 AU and 2.10 AU and 2.02 AU and 1.43 AU and 5.58 AU and 8.14 AU |
